Results: the supplement of paper PMC10331698
± gives the standard deviation of the averaged measurements.

Key:
Assay in all cases: level (log10 ratio to DMSO vehicle control); higher = higher biomarker level / cell amount than vehicle control
[1] = compound: OCC(F)(F)C(F)(F)C(F)(F)C(F)(F)C(F)(F)C(F)(F)CO [1H,1H,8H,8H-Perfluorooctane-1,8-diol] (in DMSO)
Protocol: (§1)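 BioMAP Diversity Plus panel of 12 human primary cell co-culture systems (3C, 4H, LPS, SAg, BT, BF4T, BE3C, CASM3C, HDF3CGF, KF3CT, MyoF, Mphg). Compounds were added 1 h before stimulation and left for 24 h (MyoF 48 h; BT 72 h for soluble read-outs or 6 d for IgG). Biomarkers were read by ELISA, cytotoxicity by SRB, PBMC viability and proliferation by Alamar Blue. Each well value was divided by the mean of 8 DMSO control wells on the same plate and log10 transformed; duplicate blinded samples were tested at 4 concentrations.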

[2] = compound: OCC(F)(F)C(F)(F)C(F)(F)C(F)F [1H,1H,5H-Perfluoropentanol] (in DMSO)
Protocol: as §1

[3] = compound: C=C(C)C(=O)OCCC(F)(F)C(F)(F)C(F)(F)C(F)(F)C(F)(F)C(F)(F)C(F)(F)C(F)(F)F [8:2 Fluorotelomer methacrylate] (in DMSO)
Protocol: as §1

[4] = compound: O=S(=O)(O)C(F)(F)C(F)(F)C(F)(F)C(F)(F)C(F)(F)C(F)(F)C(F)(F)F [Perfluoroheptanesulfonic acid] (in DMSO)
Protocol: as §1

[5] = compound: O=C(O)C(F)(F)C(F)(F)C(F)(F)OC(F)(F)F [Perfluoro(4-methoxybutanoic) acid] (in DMSO)
Protocol: as §1

[6] = compound: C[C@@H]1C[C@H]2[C@@H]3CCC4=CC(=O)C=C[C@]4(C)[C@@]3(F)[C@@H](O)C[C@]2(C)[C@@]1(O)C(=O)COP(=O)(O)O [Dexamethasone sodium phosphate] (in DMSO)
Protocol: as §1

Row | Test System | level (log10) ([1]; 6700 nM) | level (log10) ([1]; 20000 nM) | level (log10) ([1]; 60000 nM) | level (log10) ([2]; 6700 nM) | level (log10) ([2]; 20000 nM) | level (log10) ([2]; 60000 nM) | level (log10) ([3]; 6700 nM) | level (log10) ([3]; 20000 nM) | level (log10) ([4]; 1500 nM) | level (log10) ([4]; 4400 nM) | level (log10) ([4]; 13000 nM) | level (log10) ([4]; 40000 nM) | level (log10) ([5]; 6700 nM) | level (log10) ([5]; 20000 nM) | level (log10) ([5]; 60000 nM) | level (log10) ([6]; 1500 nM) | level (log10) ([6]; 4400 nM) | level (log10) ([6]; 13000 nM) | level (log10) ([6]; 40000 nM)
1 | KF3CT:IL-1alpha | -0.0085 ± 0.022 | -0.0095 ± 0.0064 | 0.0225 ± 0.057 | -0.0465 ± 0.05 | -0.0475 ± 0.056 | 0.0535 ± 0.025 | -0.0145 ± 0.036 | -0.028 ± 0.031 | -0.0015 ± 0.0035 | 0.013 ± 0.0071 | 0 ± 0.0028 | 0.0095 ± 0.013 | -0.003 ± 0.0099 | -0.015 ± 0.027 | 0 ± 0.021 | -0.036 ± 0.018 | -0.035 ± 0.0057 | -0.0305 ± 0.00071 | -0.051 ± 0.044
2 | KF3CT:MMP-9 | -0.003 ± 0.0028 | 0.009 ± 0.0014 | 0.058 ± 0.0099 | -0.024 ± 0.045 | -0.008 ± 0.0071 | 0.0125 ± 0.04 | -0.003 ± 0.023 | -0.014 ± 0.018 | 0.0045 ± 0.025 | -0.002 ± 0.0042 | -0.01 ± 0.0042 | 0.0345 ± 0.013 | 0.001 ± 0.0057 | 0.0055 ± 0.0092 | 0.0205 ± 0.013 | -0.0065 ± 0.00071 | -0.002 | -0.023 ± 0.014 | -0.0175 ± 0.013
3 | KF3CT:PAI-I | -0.004 ± 0.0085 | -0.008 ± 0.0071 | -0.0155 ± 0.0021 | 0.0105 ± 0.098 | 0.062 ± 0.035 | -0.0045 ± 0.011 | -0.022 ± 0.037 | -0.015 ± 0.013 | 0.001 ± 0.028 | 0.002 ± 0.035 | -0.01 ± 0.034 | -0.034 ± 0.0099 | -0.0015 ± 0.005 | -0.0115 ± 0.011 | -0.004 ± 0.018 | 0.0055 ± 0.0021 | 0.0235 ± 0.0092 | 0.002 ± 0.025 | 0.006
4 | KF3CT:SRB | -0.003 | -0.004 ± 0.0085 | -0.0085 ± 0.0092 | 0.003 ± 0.0028 | 0.0025 ± 0.0035 | 0.0025 ± 0.0035 | -0.003 | 0.004 ± 0.0042 | 0.0015 ± 0.005 | -0.0015 ± 0.0064 | -0.0005 ± 0.00071 | -0.0005 ± 0.005 | -0.004 ± 0.0014 | 0.0015 ± 0.0021 | -0.0015 ± 0.0064 | -0.0025 ± 0.00071 | -0.0035 ± 0.0035 | -0.0005 ± 0.005 | 0.0055 ± 0.012
5 | KF3CT:TIMP-2 | 0.0065 ± 0.042 | -0.0055 ± 0.018 | -0.006 ± 0.016 | -0.018 ± 0.013 | 0.025 ± 0.045 | 0.0285 ± 0.029 | -0.018 ± 0.014 | -0.0335 ± 0.033 | -0.0225 ± 0.013 | -0.0035 ± 0.03 | -0.0195 ± 0.016 | 0.0105 ± 0.0021 | -0.0015 ± 0.005 | 0.007 ± 0.0042 | 0.008 ± 0.0071 | -0.0095 ± 0.025 | -0.0005 ± 0.021 | -0.0025 ± 0.005 | 0.0155 ± 0.069
6 | KF3CT:uPA | 0.0085 ± 0.0078 | -0.017 ± 0.02 | -0.0115 ± 0.011 | 0.0035 ± 0.0092 | -0.0315 ± 0.03 | 0.0375 ± 0.005 | -0.0095 ± 0.00071 | -0.0205 ± 0.012 | 0.008 | -0.0165 ± 0.00071 | -0.0195 ± 0.005 | -0.0055 ± 0.0021 | -0.0065 ± 0.005 | -0.0175 ± 0.019 | -0.0055 ± 0.011 | 0 ± 0.011 | 0.012 ± 0.0085 | -0.0085 ± 0.00071 | -0.006 ± 0.017
7 | MyoF:CD106/VCAM-1 | -0.0045 ± 0.0035 | 0.0105 ± 0.0021 | 0.0295 ± 0.011 | -0.02 ± 0.0099 | -0.0005 ± 0.035 | 0.0165 ± 0.015 | -0.0125 ± 0.012 | 0.002 ± 0.011 | -0.01 ± 0.0057 | -0.0015 ± 0.005 | -0.0055 ± 0.015 | 0.0145 ± 0.0021 | -0.0175 ± 0.0021 | -0.0205 ± 0.0092 | -0.018 ± 0.016 | -0.0825 ± 0.03 | -0.046 ± 0.0057 | -0.058 ± 0.013 | -0.0655 ± 0.016
